Measured values published in PubChem BioAssay AID248 (DTP/NCI, 2004).
“And” between values parts separate entries of the source, which are not always exact repeats. Equal entries are not always repeated. Toxic doses and inconclusive results are not listed. Rule as the data show it: active = T/C of 150% or more; inactive = T/C below 125%.

Tested on: L1210 leukemia ip in BDF1 mice, survival T/C
Assay: NCI In Vivo Anticancer Drug Screen. Data for tumor model L1210 Leukemia (intraperitoneal) in B6D2F1 (BDF1) mice
Conditions: endpoint: mean survival time, higher = longer survival
Summary of the method: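 Tumor was transplanted into mice, which were then dosed with test compound or vehicle alone. Survival was recorded for each group, and the treated figure was expressed relative to the control figure.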

[1] = dose: 100.0 mg/kg/injection, schedule: Q01DX001 (ip), vehicle: Klucel (hydroxypropylcellulose) (HPC)
[2] = dose: 100.0 mg/kg/injection, schedule: Q01DX009 (ip), vehicle: Klucel (hydroxypropylcellulose) (HPC)
[3] = dose: 100.0 mg/kg/injection, schedule: Q04DX003 (ip), vehicle: Klucel (hydroxypropylcellulose) (HPC)
[4] = dose: 200.0 mg/kg/injection, schedule: Q01DX001 (ip), vehicle: Klucel (hydroxypropylcellulose) (HPC)
[5] = dose: 200.0 mg/kg/injection, schedule: Q01DX009 (ip), vehicle: Klucel (hydroxypropylcellulose) (HPC)
[6] = dose: 200.0 mg/kg/injection, schedule: Q04DX003 (ip), vehicle: Klucel (hydroxypropylcellulose) (HPC)
[7] = dose: 400.0 mg/kg/injection, schedule: Q01DX001 (ip), vehicle: Klucel (hydroxypropylcellulose) (HPC)
[8] = dose: 400.0 mg/kg/injection, schedule: Q01DX009 (ip), vehicle: Klucel (hydroxypropylcellulose) (HPC)
[9] = dose: 400.0 mg/kg/injection, schedule: Q04DX003 (ip), vehicle: Klucel (hydroxypropylcellulose) (HPC)
[10] = dose: 50.0 mg/kg/injection, schedule: Q04DX002 (ip), vehicle: Klucel (hydroxypropylcellulose) (HPC)
[11] = dose: 100.0 mg/kg/injection, schedule: Q04DX002 (ip), vehicle: Klucel (hydroxypropylcellulose) (HPC)
[12] = dose: 200.0 mg/kg/injection, schedule: Q04DX002 (ip), vehicle: Klucel (hydroxypropylcellulose) (HPC)
[13] = dose: 50.0 mg/kg/injection, schedule: Q01DX009 (ip), vehicle: saline with Tween-80
[14] = dose: 100.0 mg/kg/injection, schedule: Q01DX001 (ip), vehicle: other
[15] = dose: 100.0 mg/kg/injection, schedule: Q04DX003 (ip), vehicle: saline with Tween-80
[16] = dose: 200.0 mg/kg/injection, schedule: Q04DX003 (ip), vehicle: saline with Tween-80
[17] = dose: 100.0 mg/kg/injection, schedule: Q01DX009 (ip), vehicle: saline with Tween-80
[18] = dose: 200.0 mg/kg/injection, schedule: Q01DX009 (ip), vehicle: saline with Tween-80
[19] = dose: 400.0 mg/kg/injection, schedule: Q01DX009 (ip), vehicle: saline with Tween-80
[20] = dose: 100.0 mg/kg/injection, schedule: Q01DX001 (ip), vehicle: saline with Tween-80
[21] = dose: 100.0 mg/kg/injection, schedule: Q04DX002 (ip), vehicle: saline with Tween-80
[22] = dose: 200.0 mg/kg/injection, schedule: Q01DX001 (ip), vehicle: saline with Tween-80
[23] = dose: 200.0 mg/kg/injection, schedule: Q04DX002 (ip), vehicle: saline with Tween-80
[24] = dose: 400.0 mg/kg/injection, schedule: Q01DX001 (ip), vehicle: saline with Tween-80
[25] = dose: 400.0 mg/kg/injection, schedule: Q04DX002 (ip), vehicle: saline with Tween-80
[26] = dose: 400.0 mg/kg/injection, schedule: Q04DX003 (ip), vehicle: saline with Tween-80
[27] = dose: 100.0 mg/kg/injection, schedule: Q04DX003 (ip), vehicle: saline

Measured: T/C

CS(=O)(=O)Oc1cccc(C2CS(=O)(=O)c3ccccc3N2)c1 (stereo unspecified)
inactive: [1] 101 % of control | [2] 104 % of control | [3] 97 % of control | [4] 106 % of control | [5] 101 % of control | [6] 97 % of control | [7] 103 % of control | [8] 101 % of control | [9] 94 % of control

O=C(C1CC1c1ccccc1)N1CCN(c2ccccc2)CC1 (stereo unspecified)
inactive: [2] 98 % of control | [5] 90 % of control | [8] 100 % of control

O=[N+]([O-])c1ccc(/C=N/c2oc(-c3ccc([N+](=O)[O-])cc3)nc2SCc2ccccc2)cc1
inactive: [10] 100 % of control | [11] 100 % of control | [12] 116 % of control

Cc1ccc(Br)c(Br)c1
inactive: dose: 50.0 mg/kg/injection, schedule: Q01DX009 (ip), vehicle: saline 97 % of control | dose: 100.0 mg/kg/injection, schedule: Q01DX009 (ip), vehicle: saline 87 % of control | dose: 200.0 mg/kg/injection, schedule: Q01DX009 (ip), vehicle: saline 111 % of control

C[As](C)[Se]CC1OC(O)C(O)C(O)C1O (stereo unspecified)
inactive: [13] 104 % of control

Cc1ccc(OCC(=O)Nc2ccc(Cl)cc2)c(C)c1
inactive: [14] 95 % of control | dose: 200.0 mg/kg/injection, schedule: Q01DX001 (ip), vehicle: other 98 % of control | dose: 400.0 mg/kg/injection, schedule: Q01DX001 (ip), vehicle: other 98 % of control

C=C(C)COc1c(C)c(C)c(OS(=O)(=O)c2ccc(Br)cc2)c(C)c1C
inactive: [1] 97 % of control | [4] 89 % of control | [7] 100 % of control

O=S(=O)(c1ccccc1)C(Br)Br
inactive: dose: 50.0 mg/kg/injection, schedule: Q04DX003 (ip), vehicle: saline with Tween-80 101 % of control | [15] 103 % of control | [16] 101 % of control

Cc1nc(N)sc1N=Nc1cc(Br)ccc1Br
inactive: dose: 75.0 mg/kg/injection, schedule: Q01DX001 (ip), vehicle: saline 97 % of control | dose: 150.0 mg/kg/injection, schedule: Q01DX001 (ip), vehicle: saline 114 % of control

CN(C)Cc1cc(C(C)(C)C)cc(C2CCCCC2)c1O
inactive: [17] 100 % of control | [18] 94 % of control | [19] 107 % of control

Cc1ccc(NC(=S)Nc2ccc(C(C)C)cc2)c(C)c1
inactive: [11] 118 % of control | [12] 103 % of control | dose: 400.0 mg/kg/injection, schedule: Q04DX002 (ip), vehicle: Klucel (hydroxypropylcellulose) (HPC) 100 % of control

Cc1ccc(Cl)cc1NC(=O)Nc1ccccc1O
inactive: [20] 95 % of control | [17] 94 % of control and 97 % of control | [21] 94 % of control and 95 % of control | [15] 106 % of control | [22] 95 % of control | [18] 94 % of control and 92 % of control | [23] 94 % of control and 106 % of control | [16] 103 % of control | [24] 93 % of control | [19] 109 % of control and 115 % of control | [25] 93 % of control and 91 % of control | [26] 94 % of control

CCSC(=N)N
inactive: dose: 100.0 mg/kg/injection, schedule: Q04DX002 (ip), vehicle: saline 118 % of control | dose: 200.0 mg/kg/injection, schedule: Q04DX002 (ip), vehicle: saline 104 % of control | dose: 400.0 mg/kg/injection, schedule: Q04DX002 (ip), vehicle: saline 91 % of control

NNc1nc(Nc2ccccc2)nc(Nc2ccccc2)n1
inactive: dose: 100.0 mg/kg/injection, schedule: Q01DX001 (ip), vehicle: saline 89 % of control | dose: 200.0 mg/kg/injection, schedule: Q01DX001 (ip), vehicle: saline 95 % of control | dose: 400.0 mg/kg/injection, schedule: Q01DX001 (ip), vehicle: saline 96 % of control

C/C(CCC1=CC=CC1=O)=N\NC(N)=O
inactive: [14] 98 % of control

Cc1ccc(NC(=O)Nc2ccc(Nc3ccccc3)cc2)c([N+](=O)[O-])c1
inactive: [3] 94 % of control | [6] 90 % of control | [9] 90 % of control

COc1nc(Cl)cc2c1ncn2C1OC(CO)C(O)C1O (stereo unspecified)
inactive: dose: 100.0 mg/kg/injection, schedule: Q01DX005 (ip), vehicle: saline 111 % of control | dose: 200.0 mg/kg/injection, schedule: Q01DX005 (ip), vehicle: saline 108 % of control

CCOC(=O)N=C=S
inactive: [27] 95 % of control | dose: 200.0 mg/kg/injection, schedule: Q04DX003 (ip), vehicle: saline 103 % of control | dose: 400.0 mg/kg/injection, schedule: Q04DX003 (ip), vehicle: saline 95 % of control

ClC12OOC(c3ccccc3)(O1)C(c1ccccc1)c1ccccc12 (stereo unspecified)
inactive: [3] 93 % of control | [6] 98 % of control | [9] 98 % of control

CSc1ccc(NC(=O)Oc2ccccn2)cc1
inactive: [20] 89 % of control | [17] 97 % of control | [21] 93 % of control and 94 % of control | [22] 103 % of control | [18] 90 % of control | [23] 96 % of control and 114 % of control | [16] 88 % of control | [24] 105 % of control | [25] 95 % of control and 96 % of control | [26] 97 % of control

CC1=C/C(=N\N2CCCCCC2)C(C(O)(C(F)(F)F)C(F)(F)F)C(C)(C)C1 (stereo unspecified)
inactive: [13] 90 % of control | [17] 96 % of control | [18] 86 % of control | [19] 88 % of control

COc1nncc(-c2cnnc(OC)n2)n1
inactive: dose: 12.5 mg/kg/injection, schedule: Q04DX002 (ip), vehicle: Klucel (hydroxypropylcellulose) (HPC) 112 % of control | dose: 25.0 mg/kg/injection, schedule: Q04DX002 (ip), vehicle: Klucel (hydroxypropylcellulose) (HPC) 105 % of control | [10] 109 % of control

COC(=O)C1=CC(C(=O)OC)C(C(=O)OC)N2C=CSC2=C1 (stereo unspecified)
inactive: dose: 25.0 mg/kg/injection, schedule: Q04DX003 (ip), vehicle: saline 93 % of control | dose: 50.0 mg/kg/injection, schedule: Q04DX003 (ip), vehicle: saline 100 % of control | [27] 96 % of control
